# Where “and” joins values, the source holds several entries; their conditions need not be identical. Equal entries are not always repeated. Entries after “also recorded” stand apart in the source; their conditions may differ. Structures can show the parent of a compound that is named as a salt.
# How the values were obtained:
# [1] = biological target: T1, Acetylcholinesterase (h), human recombinant (HEK-293 cells) (Homo sapiens, UniProt P22303); test: In vitro human acetylcholine esterase inhibition; format: biochemical; conditions: in contrast to galantamine
# T1 construct: host or cells: HEK-293 cells
# T1 sequence (P22303 32-614): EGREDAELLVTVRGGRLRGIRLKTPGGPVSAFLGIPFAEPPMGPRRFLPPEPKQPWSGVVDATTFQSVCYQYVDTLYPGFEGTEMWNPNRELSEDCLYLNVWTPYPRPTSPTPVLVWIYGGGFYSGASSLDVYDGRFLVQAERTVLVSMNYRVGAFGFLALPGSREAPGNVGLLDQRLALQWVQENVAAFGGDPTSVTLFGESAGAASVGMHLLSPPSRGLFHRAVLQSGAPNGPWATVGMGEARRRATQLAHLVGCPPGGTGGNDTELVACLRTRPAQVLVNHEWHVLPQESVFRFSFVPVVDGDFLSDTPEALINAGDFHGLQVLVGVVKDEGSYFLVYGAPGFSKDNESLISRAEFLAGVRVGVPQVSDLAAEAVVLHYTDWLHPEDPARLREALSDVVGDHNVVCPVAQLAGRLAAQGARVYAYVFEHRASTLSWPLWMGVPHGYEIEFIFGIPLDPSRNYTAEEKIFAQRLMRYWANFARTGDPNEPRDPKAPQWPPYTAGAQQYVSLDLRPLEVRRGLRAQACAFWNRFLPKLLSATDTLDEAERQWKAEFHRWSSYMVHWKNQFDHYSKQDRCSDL
# Sprague Dawley rat = test: PICA behavior (kaolin consumption) as surrogate for emesis in the rat; format: in vivo; conditions: for rat kaolin consumption (g) over 24 h post-dose: single subcutaneous dose 3.5 mg base/kg
# Description: This is a well established model for this purpose in the rat (Takeda N et al (1993) 45 817-21).
# Once determined, a comparison was made of the effects of these doses on kaolin consumption over a 0-96 hour period in 24 h increments.
# In detail groups of 10 male Sprague Dawley rats were habituated to kaolin for 3 days, then singly housed in grid-bottomed cages and habituated for a further 2 days prior to dosing. On the day of drug administration, the animals were food-deprived for 1 h prior to dosing. […] Access to a weighed quantity of food and kaolin was then restored. Food and kaolin was weighed 24, 48, 72 and 96 h after dosing.
# ferret = test: Emetic activity (retching and vomiting) in the ferret; conditions: for Time (min) to onset of: Retching / Time (min) to onset of: Vomiting / Total number of individual incidences of: Retching / Total number of individual incidences of: Vomiting: 2 hr. observation; for animals dosed that retched / animals dosed that vomited: 20 mg (free base)/kg or similar molar dose, oral
# [2] = test system: human stomach circular smooth muscle; test: Ex vivo human stomach circular smooth muscle, electrical field stimulation; conditions: human stomach strips, EFS, 100 nM to 100 μM
# [3] = test system: rabbit stomach circular smooth muscle; test: Ex vivo rabbit stomach circular smooth muscle, electrical field stimulation; conditions: rabbit stomach strips, EFS, 100 nM to 100 μM
# rat = test: Comparative acute toxicity (behavior) of sc and po galantamine in the rat; format: in vivo; conditions: individual rats
# [4] = 40 mg/kg as base p.o., individual animals
# [5] = 20 mg/kg p.o., individual animals, listed as Galantamine HBr, hydrobromide, 20 mg/kg
# [6] = 20 mg/kg p.o., individual animals, listed as Galantamine valine ester tartrate, 20 mg/kg
compound,measurement,setting,value
COc1ccc2c3c1O[C@H]1C[C@@H](OC(=O)CCCC(=O)Nc4ccc(C(=O)O)cc4)C=C[C@@]31CCN(C)C2 [Galantamine [glutaryl-PABA] ester],inhibitory actions toward human acetylcholine esterase (in words),[1],significantly less inhibitory actions
COc1ccc2c3c1O[C@H]1C[C@@H](OC(=O)CCC(=O)N[C@H](C(=O)O)C(C)C)C=C[C@@]31CCN(C)C2 [Galantamine succinyl valine ester],Cumulative mean ± SD kaolin consumption,"Sprague Dawley rat; 11.75 mg base/kg po (galantamine free base content), 24 h",0.14 ± 0.20 g
same,Cumulative mean ± SD kaolin consumption,"Sprague Dawley rat; 11.75 mg base/kg po (galantamine free base content), 48 h",0.29 ± 0.24 g
same,Cumulative mean ± SD kaolin consumption,"Sprague Dawley rat; 11.75 mg base/kg po (galantamine free base content), 72 h",0.48 ± 0.27 g
same,Cumulative mean ± SD kaolin consumption,"Sprague Dawley rat; 11.75 mg base/kg po (galantamine free base content), 96 h",0.57 ± 0.40 g
same,Cumulative mean ± SD kaolin consumption,"Sprague Dawley rat; 23.5 mg base/kg po (galantamine free base content), 24 h",0.31 ± 0.53 g
same,Cumulative mean ± SD kaolin consumption,"Sprague Dawley rat; 23.5 mg base/kg po (galantamine free base content), 48 h",0.61 ± 0.69 g
same,Cumulative mean ± SD kaolin consumption,"Sprague Dawley rat; 23.5 mg base/kg po (galantamine free base content), 72 h",0.95 ± 0.96 g
same,Cumulative mean ± SD kaolin consumption,"Sprague Dawley rat; 23.5 mg base/kg po (galantamine free base content), 96 h",1.25 ± 1.31 g
same,Cumulative mean ± SD kaolin consumption,"Sprague Dawley rat; 47 mg base/kg po (galantamine free base content), 24 h",0.15 ± 0.18 g
same,Cumulative mean ± SD kaolin consumption,"Sprague Dawley rat; 47 mg base/kg po (galantamine free base content), 48 h",0.40 ± 0.18 g
same,Cumulative mean ± SD kaolin consumption,"Sprague Dawley rat; 47 mg base/kg po (galantamine free base content), 72 h",0.63 ± 0.28 g
same,Cumulative mean ± SD kaolin consumption,"Sprague Dawley rat; 47 mg base/kg po (galantamine free base content), 96 h",0.91 ± 0.45 g
same,Cumulative mean ± SD kaolin consumption,"Sprague Dawley rat; 47 mg base/kg po (galantamine free base content), 96 h, listed as GSVE",0.91 ± 0.45 g
same,inhibitory actions toward human acetylcholine esterase (in words),[1],significantly less inhibitory actions
same,Time (min) to onset of: Retching,"ferret; 40 mg/kg as base p.o., Mean",>120 min
same,Time (min) to onset of: Vomiting,"ferret; 40 mg/kg as base p.o., Mean",>120 min
same,Total number of individual incidences of: Retching,"ferret; 40 mg/kg as base p.o., Mean",0
same,Total number of individual incidences of: Vomiting,"ferret; 40 mg/kg as base p.o., Mean",0
same,Time (min) to onset of: Retching,ferret; [4],>120 min
same,Time (min) to onset of: Vomiting,ferret; [4],>120 min
same,Total number of individual incidences of: Retching,ferret; [4],0
same,Total number of individual incidences of: Vomiting,ferret; [4],0
same,retching or vomiting observed (in words),ferret; oral 40 mg galantamine (free base equivs)/kg,no retching or vomiting at all
same,stimulation of smooth muscle contractions (change in force production),[2],complete absence of any such effect
same,stimulation of smooth muscle contractions (change in force production),[3],complete absence of any such effect
"COc1ccc2c3c1O[C@H]1C[C@@H](O)C=C[C@@]31CCN(C)C2 [Galantamine, (4aS,6R,8aS)-4a,5,9,10,11,12-hexahydro-3-methoxy-11-methyl-6H-benzofuro[3a,3,2ef][2]benzazepin-6-ol hydrobromide]",rat kaolin consumption (g) over 24 h post-dose,Sprague Dawley rat; Mean,0.25 g
same,rat kaolin consumption (g) over 24 h post-dose,"Sprague Dawley rat; individual rats, hydrobromide",0.67 g and 0.36 g and 0.88 g and 0.08 g and 0.00 g (3×) and 0.21 g and 0.05 g
same,animals dosed that retched,ferret,55%
same,animals dosed that vomited,ferret,40%
same,Time (min) to onset of: Retching,ferret; [5],6 min (2×) and 33 min and 3 min and 5 min (3×) and >120 min (8×) and 41 min and 11 min and 10 min and 7 min (2×)
same,Time (min) to onset of: Vomiting,ferret; [5],41 min and 33 min and 75 min and 5 min (2×) and >120 min (11×) and 37 min and 10 min and 13 min and 6 min
same,Total number of individual incidences of: Retching,ferret; [5],22 and 21 and 29 and 18 and 0 (9×) and 31 and 3 (2×) and 6 and 2 and 5 and 13
same,Total number of individual incidences of: Vomiting,ferret; [5],1 (6×) and 4 (2×) and 0 (11×) and 2
same,stimulation of smooth muscle contractions (change in force production),[2],evidence of a dose response
same,stimulation of smooth muscle contractions (change in force production),[3],evidence of a dose response
same,rat behavior,"rat; 3.5 mg/kg sc, 2 min post dose, hydrobromide","Rat 1: purposeless chewing, mouth; also recorded: Rat 3: purposeless chewing, mouth"
same,rat behavior,"rat; 3.5 mg/kg sc, 5 min post-dose, hydrobromide","Rat 3: As per 2 min; also recorded: Rat 1: purposeless chewing, mouth"
same,rat behavior,"rat; 3.5 mg/kg sc, 10 min post-dose, hydrobromide","Rat 1: Tremors, flattened rostral body; also recorded: Rat 3: purposeless chewing, mouth"
same,rat behavior,"rat; 3.5 mg/kg sc, 20 min post-dose, hydrobromide","Rat 1: Quiescent, flattened body posture,; also recorded: Rat 3: Some ambulation restored"
same,rat behavior,"rat; 3.5 mg/kg sc, 30 min post-dose, hydrobromide","Rat 1: Quiescent, flattened body posture,; also recorded: Rat 3: Some ambulation restored"
same,rat behavior,"rat; 3.5 mg/kg sc, 45 min post-dose",Rat 1: food consumption and more
same,rat behavior,"rat; 3.5 mg/kg sc, 1 h, hydrobromide",Rat 1: Normal; also recorded: Rat 3: Normal
same,rat behavior,"rat; 40 mg/kg po, 10 min post-dose, hydrobromide","Rat 6: Quiescent, purposeless; also recorded: Rat 7: Quiescent, purposeless chewing,"
same,rat behavior,"rat; 40 mg/kg po, 20 min post-dose, hydrobromide",Ratc 6 as per 10 min + arching; also recorded: Rat 7: grooming + purposeless
same,rat behavior,"rat; 40 mg/kg po, 30 min post-dose","Rat 6: quiescent, purposeless chewing,"
same,rat behavior,"rat; 40 mg/kg po, 45 min post-dose, hydrobromide","Rat 6: flattened body posture, chewing,; also recorded: Rat 7: grooming, sawdust consumption"
same,rat behavior,"rat; 40 mg/kg po, 1 h, hydrobromide","Rat 6: flattened body posture, tremor; also recorded: Rat 7: Grooming, sawdust"
same,rat behavior,"rat; 40 mg/kg po, 1.5 h, hydrobromide","Rat 7: quiet, falttened posture"
same,rat behavior,"rat; 40 mg/kg po, 2 h, hydrobromide",Rat 6: much improved; also recorded: Rat 7: much improved
same,rat behavior,"rat; 40 mg/kg po, 3 h, hydrobromide",Rat 6: normal; also recorded: Rat 7: normal
"COc1ccc2c3c1O[C@H]1C[C@@H](OC(=O)[C@@H](N)C(C)C)C=C[C@@]31CCN(C)C2 [Galantamine-(S)-valine ester, galantamine-(S)-valine ester tartrate]",animals dosed that retched,ferret,45%
same,animals dosed that vomited,ferret,18%
same,Total number of individual incidences of: Retching,"ferret; 20 mg/kg p.o., Mean",3.9
same,Time (min) to onset of: Retching,ferret; [6],>120 min (6×) and 35 min and 11 min and 9 min and 6 min
same,Time (min) to onset of: Vomiting,ferret; [6],>120 min (9×) and 44 min and 9 min
same,Total number of individual incidences of: Retching,ferret; [6],0 (6×) and 22 and 2 (2×) and 3 and 14
same,Total number of individual incidences of: Vomiting,ferret; [6],0 (9×) and 1 and 3

# From US20120184532A1 (priority 2009, published 2012)
